For 25 molecules, IC50 results are on record in patent publication US10899769B2, “Imidazopiperazinone inhibitors of transcription activating proteins” (Board of Regents, The University of Texas System, priority 2018, dated 2021).

Assay [1] concerns the target GST-CBP(1081-1197) bromodomain (Homo sapiens (Human), UniProt Q92793). Description: CBP AlphaScreen Assay. Particulars: binding to biotin-H4(1-21) Ac-K5/8/12/16. The procedure, abridged: (§1)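 AlphaScreen binding of GST-bromodomain to biotin-H4(1-21) Ac-K5/8/12/16: 5 nM CBP with 20 nM peptide, or 2.5 nM BRD4 with 10 nM peptide, in 50 mM HEPES 7.5, […], 1 mM TCEP, 0.003% Tween-20. Compound preincubated 30 min, then beads 2 h, room temperature. IC50 from variable-slope fit.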
(In general: Bead proximity is the source of the signal in Alpha formats.)

Another assay concerns the target BRD4(49-170) bromodomain (Homo sapiens (Human), UniProt O60885). Put plainly: BRD4 AlphaScreen Assay. The following applies: binding to biotin-H4(1-21) Ac-K5/8/12/16. In a few lines:
as §1

Chain of GST-CBP(1081-1197) bromodomain (Q92793 1081-1197): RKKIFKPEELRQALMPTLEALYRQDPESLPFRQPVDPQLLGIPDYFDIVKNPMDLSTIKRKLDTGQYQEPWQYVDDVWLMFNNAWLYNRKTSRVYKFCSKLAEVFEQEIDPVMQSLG

The IC50 is the midpoint of a concentration-inhibition curve. Low readings indicate inhibition by little substance, high ones a need for much substance. Regarding `CNC(=O)N1CC(c2nc(-c3cccc4nc(-c5cnn(C)c5)c(C(F)F)cc34)c3n2C(C)C(=O)N(C)C3)C1` (centres unmarked) [Example 24, 3-(1-(3-(Difluoromethyl)-2-(1-methyl-1H-pyrazol-4-yl)quinolin-5-yl)-5,7-dimethyl-6-oxo-5,6,7,8-tetrahydroimidazo[1,5-a]pyrazin-3-yl)-N-methylazetidine-1-carboxamide], the IC50 amounted to 81 nM in assay [1] and 4890 nM at BRD4(49-170) bromodomain.

Take `CC1C(=O)N(C)Cc2c(-c3cccc4nc(-c5cnn(C)c5)c(C(F)F)cc34)nc(C3CN(CCF)C3)n21` (centres unmarked) [Example 25, 1-(3-(Difluoromethyl)-2-(1-methyl-1H-pyrazol-4-yl)quinolin-5-yl)-3-(1-(2-fluoroethyl)azetidin-3-yl)-5,7-dimethyl-7,8-dihydroimidazo[1,5-a]pyrazin-6(5H)-one]: the 50% inhibitory concentration (IC50) in assay [1] came to 26 nM; on BRD4(49-170) bromodomain, 11600 nM.

Regarding `CN1Cc2c(-c3cccc4nc(-c5cnn(C)c5)c(C(F)F)cc34)nc(C3CCOCC3)n2C(F)C1=O` (centres unmarked) [Example 27, 1-(3-(Difluoromethyl)-2-(1-methyl-1H-pyrazol-4-yl)quinolin-5-yl)-5-fluoro-7-methyl-3-(tetrahydro-2H-pyran-4-yl)-7,8-dihydroimidazo[1,5-a]pyrazin-6(5H)-one], the half-maximal inhibitory concentration (IC50) in assay [1] is 43 nM; at BRD4(49-170) bromodomain, 8940 nM.

For the molecule `CC1C(=O)N(C)Cc2c(-c3cccc4nc(-c5cnn(C)c5)c(C(F)F)cc34)nc(C3CN(CCO)C3)n21` (centres unmarked) [Example 28, 1-(3-(Difluoromethyl)-2-(1-methyl-1H-pyrazol-4-yl)quinolin-5-yl)-3-(1-(2-hydroxyethyl)azetidin-3-yl)-5,7-dimethyl-7,8-dihydroimidazo[1,5-a]pyrazin-6(5H)-one], the half-maximal inhibitory concentration (IC50) in assay [1] is 123 nM; at BRD4(49-170) bromodomain it was 9370 nM.

Consider `CC1C(=O)N(C)Cc2c(-c3c(F)ccc4nc(-c5cnn(C)c5)c(C(F)(F)F)cc34)nc(C3CCOCC3)n21` (centres unmarked) [Example 35, 1-(6-Fluoro-2-(1-methyl-1H-pyrazol-4-yl)-3-(trifluoromethyl)quinolin-5-yl)-5,7-dimethyl-3-(tetrahydro-2H-pyran-4-yl)-7,8-dihydroimidazo[1,5-a]pyrazin-6(5H)-one], for which the IC50 in assay [1] came to 1200 nM; on BRD4(49-170) bromodomain, 25000 nM.

Turning to `CN1Cc2c(N3CCCc4nc(-c5cnn(C)c5)c(C(F)(F)F)cc43)nc(C3CC3)n2CC1=O` [Example 39, 3-Cyclopropyl-7-methyl-1-(6-(1-methyl-1H-pyrazol-4-yl)-7-(trifluoromethyl)-3,4-dihydro-1,5-naphthyridin-1(2H)-yl)-7,8-dihydroimidazo[1,5-a]pyrazin-6(5H)-one], the half-inhibitory concentration (IC50) turned out to be 185 nM in assay [1] and 25000 nM on BRD4(49-170) bromodomain.

With `CC1C(=O)N(C)Cc2c(-c3ccc4c(c3)c(-c3cnn(C)c3)nn4C)nc(C3CCOCC3)n21` (centres unmarked) [Example 40, 5,7-Dimethyl-1-(1-methyl-3-(1-methyl-1H-pyrazol-4-yl)-1H-indazol-5-yl)-3-(tetrahydro-2H-pyran-4-yl)-7,8-dihydroimidazo[1,5-a]pyrazin-6(5H)-one], the IC50 in assay [1] was determined as 9 nM; at BRD4(49-170) bromodomain it was 1040 nM.

Consider `CC1C(=O)N(C)Cc2c(-c3ccc4c(c3)c(-c3cnn(C)c3)nn4C)nc(C3=CCOCC3)n21` (centres unmarked) [Example 41, 3-(3,6-Dihydro-2H-pyran-4-yl)-5,7-dimethyl-1-(1-methyl-3-(1-methyl-1H-pyrazol-4-yl)-1H-indazol-5-yl)-7,8-dihydroimidazo[1,5-a]pyrazin-6(5H)-one], for which the IC50 was 14 nM in assay [1] and 1620 nM on BRD4(49-170) bromodomain.

Turning to `CC1C(=O)N(C)Cc2c(-c3cc4c(-c5cnn(C)c5)nn(C)c4cc3F)nc(C3=CCOCC3)n21` (centres unmarked) [Example 42, 3-(3,6-Dihydro-2H-pyran-4-yl)-1-(6-fluoro-1-methyl-3-(1-methyl-1H-pyrazol-4-yl)-1H-indazol-5-yl)-5,7-dimethyl-7,8-dihydroimidazo[1,5-a]pyrazin-6(5H)-one], the values for the IC50 (in assay [1]; at BRD4(49-170) bromodomain) were 28 nM and 3330 nM, respectively.

As for `CC1C(=O)N(C)Cc2c(-c3cc4c(-c5cnn(C)c5)nn(C)c4cc3F)nc(C3CCOCC3)n21` (centres unmarked) [Example 43, 1-(6-Fluoro-1-methyl-3-(1-methyl-1H-pyrazol-4-yl)-1H-indazol-5-yl)-5,7-dimethyl-3-(tetrahydro-2H-pyran-4-yl)-7,8-dihydroimidazo[1,5-a]pyrazin-6(5H)-one 2,2,2-trifluoroacetate], the IC50 in assay [1] was 6 nM; on BRD4(49-170) bromodomain it was 1440 nM.

`CC1C(=O)N(C)Cc2c(-c3cccc4nc(-c5nsc(=O)[nH]5)c(C(F)F)cc34)nc(C3CC3)n21` (centres unmarked) [Example 46, 3-(5-(3-Cyclopropyl-5,7-dimethyl-6-oxo-5,6,7,8-tetrahydroimidazo[1,5-a]pyrazin-1-yl)-3-(difluoromethyl)quinolin-2-yl)-1,2,4-thiadiazol-5(4H)-one]: the 50% inhibitory concentration (IC50) is 2 nM in assay [1] and 341 nM at BRD4(49-170) bromodomain.

On to `CC1C(=O)N(C)Cc2c(-c3cccc4cc(-c5nsc(=O)[nH]5)ncc34)nc(C3CC3)n21` (centres unmarked) [Example 47, 3-(8-(3-Cyclopropyl-5,7-dimethyl-6-oxo-5,6,7,8-tetrahydroimidazo[1,5-a]pyrazin-1-yl)isoquinolin-3-yl)-1,2,4-thiadiazol-5(4H)-one], for which the IC50 in assay [1] was 2 nM; at BRD4(49-170) bromodomain it was 1460 nM.

Consider `CCN1Cc2c(N3CCCc4cc(-c5cnn(C)c5)c(C(F)F)cc43)nc(C3CC3)n2CC1=O` [Example 48, 3-cyclopropyl-1-(7-(difluoromethyl)-6-(1-methyl-1H-pyrazol-4-yl)-3,4-dihydroquinolin-1(2H)-yl)-7-ethyl-7,8-dihydroimidazo[1,5-a] pyrazin-6(5H)-one], for which the IC50 in assay [1] turned out to be 18 nM; on BRD4(49-170) bromodomain, 17600 nM.

For `CC1C(=O)N(C)Cc2c(N3CCCc4cc(-c5cnn(C)c5)c(C(F)F)cc43)nc(C3CC3)n21` (centres unmarked) [Example 49, 3-cyclopropyl-1-(7-(difluoromethyl)-6-(1-methyl-1H-pyrazol-4-yl)-3,4-dihydroquinolin-1(2H)-yl)-5,7-dimethyl-7,8-dihydroimidazo[1,5-a] pyrazin-6(5H)-one], the IC50 in assay [1] worked out at 1 nM; at BRD4(49-170) bromodomain, 332 nM.

For `CC1C(=O)N(C)Cc2c(-c3ccc4c(cnn4C)c3)nc(C3CC3)n21` (centres unmarked) [Example 50, 3-cyclopropyl-5,7-dimethyl-1-(1-methyl-1H-indazol-5-yl)-7,8-dihydroimidazo[1,5-a] pyrazin-6(5H)-one], the results for the IC50 (in assay [1]; at BRD4(49-170) bromodomain) were 155 nM and 1180 nM, respectively.

For the molecule `CC1C(=O)N(C)Cc2c(-c3ccc4sccc4c3)nc(C3CC3)n21` (centres unmarked) [Example 52, 1-(benzo[b]thiophen-5-yl)-3-cyclopropyl-5,7-dimethyl-7,8-dihydroimidazo[1,5-a] pyrazin-6(5H)-one], the IC50 is 94 nM in assay [1] and 487 nM at BRD4(49-170) bromodomain.

As for `CC1C(=O)N(C)Cc2c(-c3ccc4ccncc4c3)nc(C3CC3)n21` (centres unmarked) [Example 53, 3-cyclopropyl-1-(isoquinolin-7-yl)-5,7-dimethyl-7,8-dihydroimidazo[1,5-a] pyrazin-6(5H)-one], the IC50 in assay [1] was found to be 159 nM; on BRD4(49-170) bromodomain, 2960 nM.

On to `CC1C(=O)N(C)Cc2c(-c3ccc4cncn4c3)nc(C3CC3)n21` (centres unmarked) [Example 54, 3-cyclopropyl-1-(imidazo[1,5-a]pyridin-6-yl)-5,7-dimethyl-7,8-dihydroimidazo[1,5-a] pyrazin-6(5H)-one], for which the 50% inhibitory concentration (IC50) in assay [1] was 751 nM; at BRD4(49-170) bromodomain it was 2100 nM.

Take `CC1C(=O)N(C)Cc2c(-c3cccc4cc(C5=CCOCC5)ncc34)nc(C3CC3)n21` (stereo not drawn) [Example 55, 3-cyclopropyl-l-(3-(3,6-dihydro-2H-pyran-4-yl)isoquinolin-8-yl)-5,7-dimethyl-7,8-dihydroimidazo[1,5-a] pyrazin-6(5H)-one]: the IC50 in assay [1] came to 2 nM; at BRD4(49-170) bromodomain, 392 nM.

`CC1C(=O)N(C)Cc2c(-c3ccn4cncc4c3)nc(C3CC3)n21` (centres unmarked) [Example 57, 3-cyclopropyl-1-(imidazo[1,5-a]pyridin-7-yl)-5,7-dimethyl-7,8-dihydroimidazo[1,5-a] pyrazin-6(5H)-one]: the results for the IC50 (in assay [1]; on BRD4(49-170) bromodomain) were 1070 nM and 2610 nM, respectively.

With `CC1C(=O)N(C)Cc2c(-c3cccc4cc(C5CCOCC5)ncc34)nc(C3CC3)n21` (centres unmarked) [Example 58, 3-cyclopropyl-5,7-dimethyl-1-(3-(tetrahydro-2H-pyran-4-yl)isoquinolin-8-yl)-7,8-dihydroimidazo[1,5-a] pyrazin-6(5H)-one], the IC50 was determined as 2 nM in assay [1] and 188 nM on BRD4(49-170) bromodomain.

Take `Cc1c(-c2cc3cccc(-c4nc(C5CC5)n5c4CN(C)C(=O)C5C)c3cn2)cnn1C` (centres unmarked) [Example 59, 3-cyclopropyl-1-(3-(1,5-dimethyl-1H-pyrazol-4-yl)isoquinolin-8-yl)-5,7-dimethyl-7,8-dihydroimidazo[1,5-a] pyrazin-6(5H)-one]: the IC50 in assay [1] was found to be 4 nM; on BRD4(49-170) bromodomain, 496 nM.

Turning to `Cc1c(-c2nc3cccc(-c4nc(C5CC5)n5c4CN(C)C(=O)C5C)c3cc2C(F)F)cnn1C` (centres unmarked) [Example 61, 3-cyclopropyl-1-(3-(difluoromethyl)-2-(1,5-dimethyl-1H-pyrazol-4-yl)quinolin-5-yl)-5,7-dimethyl-7,8-dihydroimidazo[1,5-a] pyrazin-6(5H)-one], the values for the IC50 (in assay [1]; on BRD4(49-170) bromodomain) were 4 nM and 511 nM, respectively.

In the case of `CC1C(=O)N(C)Cc2c(-c3cccc4cc(-c5ccn(C)n5)ncc34)nc(C3CC3)n21` (stereo not drawn) [Example 62, 3-cyclopropyl-5,7-dimethyl-1-(3-(l-methyl-1H-pyrazol-3-yl)isoquinolin-8-yl)-7,8-dihydroimidazo[1,5-a] pyrazin-6(5H)-one], the IC50 in assay [1] amounted to 2 nM; at BRD4(49-170) bromodomain, 164 nM.

As to `Cc1nn(C)cc1-c1cc2cccc(-c3nc(C4CC4)n4c3CN(C)C(=O)C4C)c2cn1` (centres unmarked) [Example 63, 3-cyclopropyl-1-(3-(1,3-dimethyl-1H-pyrazol-4-yl)isoquinolin-8-yl)-5,7-dimethyl-7,8-dihydroimidazo[1,5-a] pyrazin-6(5H)-one], the 50% inhibitory concentration (IC50) in assay [1] worked out at 1 nM; at BRD4(49-170) bromodomain, 76 nM.
